# Calls of active or inactive are those of the source. The calls are words filed in the database; no cut-off is given here.
# Tests used:
# Type in all cases: functional
# [1] = system: HT-29; assay: Growth inhibition of human HT-29 cells at 10 uM after 48 hrs by SRB assay relative to control
# [2] = system: OVCAR-8; assay: Growth inhibition of human OVCAR8 cells at 10 uM after 48 hrs by SRB assay relative to control
# [3] = system: CCRF-CEM; assay: Growth inhibition of human CCRF-CEM cells at 10 uM after 48 hrs by SRB assay relative to control; settings: read-out: GI
# [4] = system: K562; assay: Growth inhibition of human K562 cells at 10 uM after 48 hrs by SRB assay relative to control; settings: K562, 48 h, read-out: GI
# [5] = system: SR; assay: Growth inhibition of human SR cells at 10 uM after 48 hrs by SRB assay relative to control; settings: read-out: GI
# [6] = system: MOLT-4; assay: Growth inhibition of human MOLT4 cells at 10 uM after 48 hrs by SRB assay relative to control; settings: MOLT-4, 48 h, read-out: GI
# [7] = system: RPMI-8226; assay: Growth inhibition of human RPMI8226 cells at 10 uM after 48 hrs by SRB assay relative to control; settings: RPMI-8226, 48 h, read-out: GI
# [8] = system: HL-60; assay: Growth inhibition of human HL60 cells at 10 uM after 48 hrs by SRB assay relative to control
# [9] = system: A549; assay: Growth inhibition of human A549 cells at 10 uM after 48 hrs by SRB assay relative to control; settings: A549, 48 h, read-out: GI
# [10] = system: HOP-62; assay: Growth inhibition of human HOP62 cells at 10 uM after 48 hrs by SRB assay relative to control; settings: for inhibition of growth at 10 µM: HOP-62, 48 h, read-out: GI
# [11] = system: HOP-92; assay: Growth inhibition of human HOP92 cells at 10 uM after 48 hrs by SRB assay relative to control; settings: HOP-92, 48 h, read-out: GI
# [12] = system: NCI-H226; assay: Growth inhibition of human NCI-H226 cells at 10 uM after 48 hrs by SRB assay relative to control; settings: for inhibition of growth at 10 µM: NCI-H226, 48 h, read-out: GI
# [13] = system: NCI-H23; assay: Growth inhibition of human NCI-H23 cells at 10 uM after 48 hrs by SRB assay relative to control; settings: NCI-H23, 48 h, read-out: GI
# [14] = system: NCI-H322M; assay: Growth inhibition of human NCI-H322M cells at 10 uM after 48 hrs by SRB assay relative to control
# [15] = system: NCI-H522; assay: Growth inhibition of human NCI-H522 cells at 10 uM after 48 hrs by SRB assay relative to control; settings: NCI-H522, 48 h, read-out: GI
# [16] = system: HCT-116; assay: Growth inhibition of human HCT116 cells at 10 uM after 48 hrs by SRB assay relative to control; settings: for inhibition of growth at 10 µM: HCT-116, 48 h, read-out: GI
# [17] = system: KM12; assay: Growth inhibition of human KM12 cells at 10 uM after 48 hrs by SRB assay relative to control; settings: KM12, 48 h, read-out: GI
# [18] = system: SF-268; assay: Growth inhibition of human SF268 cells at 10 uM after 48 hrs by SRB assay relative to control; settings: for inhibition of growth at 10 µM: SF-268, 48 h, read-out: GI
# [19] = system: SNB-19; assay: Growth inhibition of human SNB19 cells at 10 uM after 48 hrs by SRB assay relative to control; settings: for inhibition of growth at 10 µM: SNB-19, 48 h, read-out: GI
# [20] = system: SNB-75; assay: Growth inhibition of human SNB75 cells at 10 uM after 48 hrs by SRB assay relative to control; settings: SNB-75, 48 h, read-out: GI
# [21] = system: U-251; assay: Growth inhibition of human U251 cells at 10 uM after 48 hrs by SRB assay relative to control; settings: U-251, 48 h, read-out: GI
# [22] = system: LOX IMVI; assay: Growth inhibition of human LOXIMVI cells at 10 uM after 48 hrs by SRB assay relative to control; settings: read-out: GI
# [23] = system: SK-MEL-2; assay: Growth inhibition of human SK-MEL-2 cells at 10 uM after 48 hrs by SRB assay relative to control; settings: for inhibition of growth at 10 µM: SK-MEL-2, 48 h, read-out: GI
# [24] = system: SK-MEL-5; assay: Growth inhibition of human SK-MEL-5 cells at 10 uM after 48 hrs by SRB assay relative to control; settings: for inhibition of growth at 10 µM: SK-MEL-5, 48 h, read-out: GI
# [25] = system: UACC-257; assay: Growth inhibition of human UACC257 cells at 10 uM after 48 hrs by SRB assay relative to control
# [26] = system: UACC-62; assay: Growth inhibition of human UACC62 cells at 10 uM after 48 hrs by SRB assay relative to control
# [27] = system: OVCAR-3; assay: Growth inhibition of human OVCAR3 cells at 10 uM after 48 hrs by SRB assay relative to control
# [28] = system: OVCAR-4; assay: Growth inhibition of human OVCAR4 cells at 10 uM after 48 hrs by SRB assay relative to control; settings: for inhibition of growth at 10 µM: OVCAR-4, 48 h, read-out: GI
# [29] = system: NCI/ADR-RES; assay: Growth inhibition of human NCI/ADR-RES cells at 10 uM after 48 hrs by SRB assay relative to control; settings: read-out: GI
# [30] = system: SK-OV-3; assay: Growth inhibition of human SKOV3 cells at 10 uM after 48 hrs by SRB assay relative to control; settings: for inhibition of growth at 10 µM: SK-OV-3, 48 h, read-out: GI
# [31] = system: 786-0; assay: Growth inhibition of human 786-0 cells at 10 uM after 48 hrs by SRB assay relative to control
# [32] = system: A498; assay: Growth inhibition of human A498 cells at 10 uM after 48 hrs by SRB assay relative to control; settings: A498, 48 h, read-out: GI
# [33] = system: CAKI-1; assay: Growth inhibition of human Caki1 cells at 10 uM after 48 hrs by SRB assay relative to control; settings: CAKI-1, 48 h, read-out: GI
# [34] = system: RXF 393; assay: Growth inhibition of human RXF393 cells at 10 uM after 48 hrs by SRB assay relative to control
# [35] = system: UO-31; assay: Growth inhibition of human UO31 cells at 10 uM after 48 hrs by SRB assay relative to control; settings: UO-31, 48 h, read-out: GI
# [36] = system: PC-3; assay: Growth inhibition of human PC3 cells at 10 uM after 48 hrs by SRB assay relative to control; settings: PC-3, 48 h, read-out: GI
# [37] = system: MCF7; assay: Growth inhibition of human MCF7 cells at 10 uM after 48 hrs by SRB assay relative to control; settings: for inhibition of growth at 10 µM: MCF7, 48 h, read-out: GI
# [38] = system: Hs-578T; assay: Growth inhibition of human Hs 578T cells at 10 uM after 48 hrs by SRB assay relative to control
# [39] = system: MDA-MB-468; assay: Growth inhibition of human MDA-MB-468 cells at 10 uM after 48 hrs by SRB assay relative to control; settings: for inhibition of growth at 10 µM: MDA-MB-468, 48 h, read-out: GI
# [40] = system: Malme-3M; assay: Growth inhibition of human MALME-3M cells at 10 uM after 48 hrs by SRB assay relative to control
Structure (SMILES),growth inhibition (GI) [2],inhibition of growth at 10 µM [3] [%],inhibition of growth at 10 µM [4] [%],inhibition of growth at 10 µM [5] [%],inhibition of growth at 10 µM [6] [%],inhibition of growth at 10 µM [7] [%],growth inhibition (GI) [8],inhibition of growth at 10 µM [9] [%],inhibition of growth at 10 µM [11] [%],inhibition of growth at 10 µM [13] [%],growth inhibition (GI) [14],inhibition of growth at 10 µM [15] [%],inhibition of growth at 10 µM [17] [%],inhibition of growth at 10 µM [20] [%],inhibition of growth at 10 µM [21] [%],inhibition of growth at 10 µM [22] [%],growth inhibition (GI) [27],inhibition of growth at 10 µM [29] [%],inhibition of growth at 10 µM [32] [%],inhibition of growth at 10 µM [33] [%],other results
COc1ccc(Cc2nnc(SCC(=O)Nc3ccc(C)cc3)n2-c2ccc(C)cc2)cc1,inactive,7.21,26.4,12.8,39.5,10,inactive,1.85,17.5,2,inactive,13.1,8.1,1.89,2,2.4,inactive,5.55,46.2,1.24,"growth inhibition (GI) [1]: inactive; inhibition of growth at 10 µM [10]: 1.2%; growth inhibition (GI) [12]: inactive; growth inhibition (GI) [16]: inactive; inhibition of growth at 10 µM [18]: 4.43%; inhibition of growth at 10 µM [19]: 3.42%; inhibition of growth at 10 µM [23]: 6.19%; growth inhibition (GI) [24]: inactive; growth inhibition (GI) [25]: inactive; inhibition of growth at 10 µM ([26]; UACC-62, 48 h, read-out: GI): 4.65%; growth inhibition (GI) [28]: inactive; inhibition of growth at 10 µM [30]: 12%; growth inhibition (GI) [31]: inactive; growth inhibition (GI) [34]: inactive; inhibition of growth at 10 µM [35]: 31.3%; inhibition of growth at 10 µM [36]: 32.4%; inhibition of growth at 10 µM [37]: 3%; growth inhibition (GI) [38]: inactive; growth inhibition (GI) [39]: inactive; growth inhibition (GI) [40]: inactive"
CCSc1nnc(Cc2ccc(OC)cc2)n1-c1ccccc1,inactive,7.61,14.1,3.31,10,13.5,inactive,5.86,8.26,6.16,inactive,22.4,3.07,10,13,4.89,inactive,6.88,22.1,11.9,"inhibition of growth at 10 µM ([1]; HT-29, 48 h, read-out: GI): 8.24%; inhibition of growth at 10 µM [10]: 2.28%; inhibition of growth at 10 µM [12]: 5.31%; growth inhibition (GI) [16]: inactive; inhibition of growth at 10 µM [18]: 6.15%; inhibition of growth at 10 µM [19]: 14.5%; inhibition of growth at 10 µM [23]: 5%; inhibition of growth at 10 µM [24]: 4.7%; inhibition of growth at 10 µM ([25]; UACC-257, 48 h, read-out: GI): 3.16%; growth inhibition (GI) [26]: inactive; inhibition of growth at 10 µM [28]: 7.48%; growth inhibition (GI) [30]: inactive; growth inhibition (GI) [31]: inactive; growth inhibition (GI) [34]: inactive; inhibition of growth at 10 µM [35]: 20%; inhibition of growth at 10 µM [36]: 14.3%; inhibition of growth at 10 µM [37]: 5.53%; growth inhibition (GI) [38]: inactive; inhibition of growth at 10 µM [39]: 10.7%; inhibition of growth at 10 µM ([40]; read-out: GI): 9.23%"
CCSc1nnc(Cc2ccc(OC)cc2)n1-c1ccc(C)cc1,inactive,16.7,20.2,8.17,17.7,13.5,inactive,3.38,31.6,4.3,inactive,14.6,6.34,4,1.35,3.04,inactive,10.1,6.56,4.82,growth inhibition (GI) [1]: inactive; inhibition of growth at 10 µM [10]: 6%; growth inhibition (GI) [12]: inactive; inhibition of growth at 10 µM [16]: 4.52%; growth inhibition (GI) [18]: inactive; growth inhibition (GI) [19]: inactive; inhibition of growth at 10 µM [23]: 1.9%; inhibition of growth at 10 µM [24]: 2%; growth inhibition (GI) [25]: inactive; growth inhibition (GI) [26]: inactive; growth inhibition (GI) [28]: inactive; inhibition of growth at 10 µM [30]: 6.45%; growth inhibition (GI) [31]: inactive; growth inhibition (GI) [34]: inactive; inhibition of growth at 10 µM [35]: 14.2%; inhibition of growth at 10 µM [36]: 14.3%; growth inhibition (GI) [37]: inactive; growth inhibition (GI) [38]: inactive; inhibition of growth at 10 µM [39]: 2.5%; growth inhibition (GI) [40]: inactive
COc1ccc(Cc2nnc3sc(SCc4ccccc4)nn23)cc1,inactive,25.1,12.4,12.9,11.6,2.01,inactive,3.43,27.6,7.22,inactive,16.8,6,11,2.8,15.8,inactive,3.11,19.7,5.66,"growth inhibition (GI) [1]: inactive; growth inhibition (GI) [10]: inactive; inhibition of growth at 10 µM [12]: 14%; inhibition of growth at 10 µM [16]: 1.27%; inhibition of growth at 10 µM [18]: 2.02%; inhibition of growth at 10 µM [19]: 10.6%; growth inhibition (GI) [23]: inactive; growth inhibition (GI) [24]: inactive; growth inhibition (GI) [25]: inactive; growth inhibition (GI) [26]: inactive; inhibition of growth at 10 µM [28]: 8.58%; inhibition of growth at 10 µM [30]: 1.1%; inhibition of growth at 10 µM ([31]; 786-0, 48 h, read-out: GI): 6.46%; growth inhibition (GI) [34]: inactive; inhibition of growth at 10 µM [35]: 20.6%; inhibition of growth at 10 µM [36]: 6%; inhibition of growth at 10 µM [37]: 5.28%; growth inhibition (GI) [38]: inactive; growth inhibition (GI) [39]: inactive; growth inhibition (GI) [40]: inactive"

# From ChEMBL document CHEMBL4190322, “Structure-based development of novel triazoles and related thiazolotriazoles as anticancer agents and Cdc25A/B phosphatase inhibitors. Synthesis, in vitro biological evaluation, molecular docking and in silico ADME-T studies” (Eur J Med Chem, 2017)
